# Changes are numbered by the printed parent chain.
# Columns and labels:
# [1] = target: T1, PpnN (purine/pyrimidine nucleotide 5'-phosphate nucleosidase; EC 3.2.2.10) (Escherichia coli, UniProt P0ADR8); assay: initial-rate inhibition, HPLC of uracil release, nonlinear fit; type: biochemical; details: substrate UMP; 50 mM HEPES pH 7.5, 40 °C; competitive; wild type
# T1 construct: subunit 51,794 Da (wild type; RY 51,440 Da); wild type tetramer, RY variant monomer
# T1 sequence (P0ADR8 1-454): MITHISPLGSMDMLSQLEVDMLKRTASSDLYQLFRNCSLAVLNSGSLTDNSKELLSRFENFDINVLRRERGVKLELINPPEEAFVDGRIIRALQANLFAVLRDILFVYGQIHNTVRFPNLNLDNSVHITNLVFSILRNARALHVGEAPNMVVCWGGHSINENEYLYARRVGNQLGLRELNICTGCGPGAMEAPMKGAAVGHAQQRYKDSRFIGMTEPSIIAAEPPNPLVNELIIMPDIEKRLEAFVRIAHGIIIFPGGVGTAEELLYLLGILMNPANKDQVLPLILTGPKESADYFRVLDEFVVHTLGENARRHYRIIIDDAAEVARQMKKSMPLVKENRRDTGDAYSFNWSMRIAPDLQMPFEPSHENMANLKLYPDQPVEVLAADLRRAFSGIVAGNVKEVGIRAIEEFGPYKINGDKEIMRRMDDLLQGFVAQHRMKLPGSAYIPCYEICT
# [2] = target: T2, PpnN (purine/pyrimidine nucleotide 5'-phosphate nucleosidase; EC 3.2.2.10) (Escherichia coli, UniProt P0ADR8, R341A/Y347A); assay: as above; type: biochemical; details: substrate UMP; 50 mM HEPES pH 7.5, 40 °C; competitive; RY variant, monomer
# T2 construct: subunit 51,794 Da (wild type; RY 51,440 Da); wild type tetramer, RY variant monomer
# T2 sequence (P0ADR8 1-454 R341A/Y347A): T1 sequence (P0ADR8 1-454) with R341A, Y347A
smiles,measurement,setting,value
O=P(O)(O)OC[C@H]1OC(O)[C@H](O)[C@@H]1O (stereo partly drawn) [D-ribose 5-phosphate],Ki,[1],100 µM
same,Ki,[2],1200 ± 100 µM

# Reference: article PMC12322656, “N‐ to C‐Glycoside Rearrangement of Uridine 5′‐Phosphate in Two Enzymatic Steps for the Production of Pseudouridine 5′‐Phosphate” (Biotechnology and Bioengineering, 2025)
